Active and inactive are the calls of the source. The rule behind the calls is not given here.
Experiments:
[1] = Reversal of P-gp-mediated resistance to doxorubicin in human SW620/AD300 cells assessed as reduction in doxorubin IC50 at 10 uM after 72 hrs by SRB assay; type: cell-based; details: SW620/AD300, 72 h
[2] = Reversal of P-gp-mediated resistance to doxorubicin in human SW620 cells assessed as reduction in doxorubin IC50 at 400 nM after 72 hrs by SRB assay; type: cell-based; details: SW-620, 72 h
[3] = Reversal of P-gp-mediated resistance to doxorubicin in human SW620/AD300 cells assessed as reduction in doxorubin IC50 at 400 nM after 72 hrs by SRB assay; type: cell-based; details: SW620/AD300, 72 h
SW-620 [4] = experiment: Reversal of P-gp-mediated resistance assessed as ratio of doxorubicin IC50 for human SW620/AD300 cells to doxorubicin IC50 for human SW620 cells in presence of compound at 400 nM; type: cell-based
[5] = Reversal of P-gp-mediated resistance to doxorubicin in human SW620 cells assessed as reduction in doxorubin IC50 at 2 uM after 72 hrs by SRB assay; type: cell-based; details: SW-620, 72 h
[6] = Reversal of P-gp-mediated resistance to doxorubicin in human SW620/AD300 cells assessed as reduction in doxorubin IC50 at 2 uM after 72 hrs by SRB assay; type: cell-based; details: SW620/AD300, 72 h
[7] = Reversal of P-gp-mediated resistance to cisplatin in human SW620 cells assessed as reduction in doxorubin IC50 at 2 uM after 72 hrs by SRB assay; type: cell-based; details: SW-620, 72 h
[8] = Reversal of P-gp-mediated resistance to cisplatin in human SW620 cells assessed as reduction in doxorubin IC50 at 10 uM after 72 hrs by SRB assay; type: cell-based; details: SW-620, 72 h
[9] = Reversal of P-gp-mediated resistance to cisplatin in human SW620/AD300 cells assessed as reduction in doxorubin IC50 at 2 uM after 72 hrs by SRB assay; type: cell-based; details: SW620/AD300, 72 h
[10] = Reversal of P-gp-mediated resistance to cisplatin in human SW620/AD300 cells assessed as reduction in doxorubin IC50 at 10 uM after 72 hrs by SRB assay; type: cell-based; details: SW620/AD300, 72 h
[11] = molecular target: T1, ATP-dependent translocase ABCB1 (Homo sapiens, UniProt P08183); experiment: Inhibition of P-gp in human SW620/AD300 cells assessed as reduction in rhodamine 123 efflux by flow cytometry; type: cell-based
T1 sequence (P08183 whole entry): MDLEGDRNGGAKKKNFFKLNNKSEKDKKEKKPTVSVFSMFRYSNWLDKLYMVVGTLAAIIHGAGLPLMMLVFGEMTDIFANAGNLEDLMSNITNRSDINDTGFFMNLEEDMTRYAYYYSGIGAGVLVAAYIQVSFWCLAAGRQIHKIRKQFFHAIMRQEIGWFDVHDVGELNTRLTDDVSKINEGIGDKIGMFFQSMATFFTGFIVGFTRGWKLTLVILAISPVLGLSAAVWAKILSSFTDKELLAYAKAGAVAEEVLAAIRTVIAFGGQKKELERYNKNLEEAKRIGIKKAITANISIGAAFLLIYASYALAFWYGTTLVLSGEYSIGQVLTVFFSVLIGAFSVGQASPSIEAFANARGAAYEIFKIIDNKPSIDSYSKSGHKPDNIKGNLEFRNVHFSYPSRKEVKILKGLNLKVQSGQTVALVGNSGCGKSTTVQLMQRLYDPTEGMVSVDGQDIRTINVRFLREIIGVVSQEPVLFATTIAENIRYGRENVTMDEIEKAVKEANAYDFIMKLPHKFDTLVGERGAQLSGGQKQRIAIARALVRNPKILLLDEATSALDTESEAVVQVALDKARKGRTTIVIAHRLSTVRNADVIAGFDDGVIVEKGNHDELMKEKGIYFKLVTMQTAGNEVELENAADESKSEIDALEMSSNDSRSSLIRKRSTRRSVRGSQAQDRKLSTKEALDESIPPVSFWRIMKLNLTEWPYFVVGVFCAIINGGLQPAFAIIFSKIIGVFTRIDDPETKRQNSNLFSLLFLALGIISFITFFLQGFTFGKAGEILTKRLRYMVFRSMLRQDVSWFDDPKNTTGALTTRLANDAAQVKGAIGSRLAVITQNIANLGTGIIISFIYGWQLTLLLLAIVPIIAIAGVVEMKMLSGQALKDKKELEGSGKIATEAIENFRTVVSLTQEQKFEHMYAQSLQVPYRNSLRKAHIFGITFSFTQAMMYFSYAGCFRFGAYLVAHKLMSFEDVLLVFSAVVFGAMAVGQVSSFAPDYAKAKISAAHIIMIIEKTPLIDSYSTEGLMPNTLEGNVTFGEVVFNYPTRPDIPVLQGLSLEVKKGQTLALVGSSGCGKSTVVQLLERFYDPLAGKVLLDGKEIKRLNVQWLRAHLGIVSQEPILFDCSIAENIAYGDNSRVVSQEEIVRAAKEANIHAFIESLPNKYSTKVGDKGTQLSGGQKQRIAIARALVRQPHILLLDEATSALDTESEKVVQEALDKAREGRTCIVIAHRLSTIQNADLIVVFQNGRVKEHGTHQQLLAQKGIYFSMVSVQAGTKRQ

[12] = molecular target: T1, ATP-dependent translocase ABCB1; experiment: Inhibition of P-gp in human SW620/AD300 cells assessed as reduction in rhodamine 123 efflux at 50 uM by flow cytometry; type: cell-based; details: sw620/ad300, 50 µM
NCI-H292 [13] = experiment: Induction of apoptosis in human NCI-H292 cells at 10 uM after 24 hrs using annexin V by flow cytometry; type: functional, cell-based
NCI-H460 [14] = experiment: Induction of apoptosis in human NCI-H460 cells at 10 uM after 24 hrs using annexin V by flow cytometry; type: functional, cell-based
NCI-H460 [15] = experiment: Induction of apoptosis in human NCI-H460/Vbl cells at 10 uM after 24 hrs using annexin V by flow cytometry; type: functional, cell-based
NCI-H292 [16] = experiment: Induction of apoptosis in human NCI-H292 cells at 10 uM after 24 hrs using annexin V by flow cytometry in presence of 1 uM gefitinib; type: functional, cell-based
NCI-H460 [17] = experiment: Induction of apoptosis in human NCI-H460 cells at 10 uM after 24 hrs using annexin V by flow cytometry in presence of 1 uM gefitinib; type: functional, cell-based
NCI-H460 [18] = experiment: Induction of apoptosis in human NCI-H460/Vbl cells at 10 uM after 24 hrs using annexin V by flow cytometry in presence of 1 uM gefitinib; type: functional, cell-based
SW-620 [19] = experiment: Ratio of IC50 for human SW620/AD300 cells to IC50 for human SW620 cells; type: functional
SW-620 [20] = experiment: cells; details: Homo sapiens, SW-620, 72 h
Description: Growth inhibition of human SW620 cells after 72 hrs by SRB assay

cells = details: Homo sapiens, SW620/AD300, 72 h
Description: Growth inhibition of human SW620/AD300 cells after 72 hrs by SRB assay

NCI-H292 [21] = experiment: Cytotoxicity against human NCI-H292 cells after 72 hrs by SRB assay; type: functional, cell-based; details: NCI-H292, 72 h
[22] = Cytotoxicity against human H460 cells after 72 hrs by SRB assay; details: NCI-H460, 72 h
[23] = Cytotoxicity against human H460/Vbl cells after 72 hrs by SRB assay

`C/C=C(\C)C(=O)O[C@@H]1[C@@H](O)[C@]2(C)[C@@H](C(C)=O)CC[C@@]23O[C@]32CC[C@H]3C[C@@H](O[C@H]4C[C@@H](OC)[C@H](O[C@@H]5O[C@H](C)[C@@H](O[C@@H]6O[C@H](CO)[C@@H](O)[C@H](O)[C@H]6O)[C@@H](OC)[C@H]5O)[C@@H](C)O4)CC[C@]3(C)[C@@H]12` showed an IC50 [1] of 23.9 µM.

`CO[C@H]1[C@@H](O)[C@H](O[C@@H]2[C@@H](C)O[C@@H](O[C@H]3CC[C@@]4(C)[C@@H](CC[C@@]56O[C@@]57CC[C@H](C(C)=O)[C@@]7(C)[C@H](O)[C@@H](O)[C@H]46)C3)C[C@H]2OC)O[C@H](C)[C@H]1O[C@@H]1O[C@H](CO)[C@@H](O)[C@H](O)[C@H]1O` gave an IC50 [1] of 24.8 µM.

Work on `C/C=C/C[C@@H](C)C(=O)[C@H]1C(=O)N[C@@H](C(C)C)C(=O)N(C)CC(=O)N(C)[C@@H](CC(C)C)C(=O)N[C@@H](C(C)C)C(=O)N(C)[C@@H](CC(C)C)C(=O)N[C@@H](C)C(=O)N[C@H](C)C(=O)N(C)[C@@H](CC(C)C)C(=O)N(C)[C@@H](CC(C)C)C(=O)N(C)[C@@H](C(C)C)C(=O)N1C` [VALSPODAR] yielded an IC50 [2] of 0.1 µM, an IC50 [3] of 0.22 µM and a Ratio IC50 (SW-620 [4]) of 2.

For `CO[C@H]1[C@@H](O)[C@H](O[C@@H]2[C@@H](C)O[C@@H](O[C@H]3CC[C@@]4(C)[C@@H](CC[C@@]56O[C@@]57CC[C@H](C(C)=O)[C@@]7(C)[C@H](OC(C)=O)[C@@H](OC(=O)c5ccccc5)[C@H]46)C3)C[C@H]2OC)O[C@H](C)[C@H]1O[C@@H]1O[C@H](CO)[C@@H](O[C@@H]2O[C@H](CO)[C@@H](O)[C@H](O)[C@H]2O)[C@H](O)[C@H]1O`, the IC50 [1] was 26.8 µM.

Compound `CCC(C)C(=O)O[C@@H]1[C@@H](OC(C)=O)[C@]2(C)[C@@H](C(C)=O)CC[C@@]23O[C@]32CC[C@H]3CC(=O)CC[C@]3(C)[C@@H]12` (stereo not given in full) has an IC50 [5] of 0.11 µM, an IC50 [1] of 0.85 µM and an IC50 [6] of 2.1 µM. The IC50 [7] was 11.5 µM, the IC50 [8] was 9.4 µM and the IC50 [9] was 12 µM. For the same compound, the IC50 [10] was 10.2 µM, the “inhibition (INH)” value [11] was “Dose-dependent effect” and the “inhibition (INH)” value [12] was “Active”. The Activity (NCI-H292 [13]) was “inactive”, the Activity (NCI-H460 [14]) was “inactive” and the Activity (NCI-H460 [15]) was “inactive”. For the same compound, the Activity (NCI-H292 [16]) was “Active”, the Activity (NCI-H460 [17]) was “Active” and the Activity (NCI-H460 [18]) was “Active”.

`CO[C@H]1[C@@H](O)[C@H](O[C@@H]2[C@@H](C)O[C@@H](O[C@H]3CC[C@@]4(C)[C@@H](CC[C@@]56O[C@@]57CC[C@H](C(C)=O)[C@@]7(C)[C@H](O)[C@@H](OC(C)=O)[C@H]46)C3)C[C@H]2OC)O[C@H](C)[C@H]1O` showed an IC50 [1] of 23.4 µM.

In the case of `COc1cccc2c1C(=O)c1c(O)c3c(c(O)c1C2=O)C[C@@](O)(C(=O)CO)C[C@@H]3O[C@H]1C[C@H](N)[C@H](O)[C@H](C)O1` [DOXORUBICIN], the “Ratio IC50” value (SW-620 [19]) is reported as 166, the IC50 (SW-620 [20]) is reported as 0.17 µM and the IC50 (cells) is reported as 28.2 µM.

`CO[C@H]1[C@@H](O)[C@H](O[C@@H]2[C@@H](C)O[C@@H](O[C@H]3CC[C@@]4(C)[C@@H](CC[C@@]56O[C@@]57CC[C@H](C(C)=O)[C@@]7(C)[C@H](O)[C@@H](OC(=O)c5ccccc5)[C@H]46)C3)C[C@H]2OC)O[C@H](C)[C@H]1O` gave an IC50 [1] of 23.4 µM.

For `C#Cc1cccc(Nc2ncnc3cc(OCCOC)c(OCCOC)cc23)c1` [ERLOTINIB], the IC50 (NCI-H292 [21]) was 1 µM, the IC50 [22] was 9.5 µM and the IC50 [23] was 21.5 µM.

With `C/C=C(\C)C(=O)O[C@@H]1[C@@H](O)[C@]2(C)[C@@H](C(C)=O)CC[C@@]23O[C@]32CC[C@H]3C[C@@H](O[C@H]4C[C@@H](OC)[C@H](O[C@@H]5O[C@H](C)[C@@H](O)[C@@H](OC)[C@H]5O)[C@@H](C)O4)CC[C@]3(C)[C@@H]12` the IC50 [1] was 25.6 µM.

Reference: ChEMBL document CHEMBL3351825, “Polyoxypregnane steroids from the stems of Marsdenia tenacissima” (J Nat Prod, 2014)
